Measurements reported in US20230085307A1, “PYRIDAZINONE COMPOUND AND HERBICIDE” (NISSAN CHEMICAL CORPORATION, priority 2019, published 2023).

Assays:
wild oat [1] = experiment: Test Example 4: herbicidal effect by soil treatment (Table 19, symbol I); assay type: in vivo, wild oat (Avena fatua)
How it was run: (§1)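 Pre-emergence style soil spray: seeds under ~1.5 cm sterilized diluvial soil received a uniform coat of emulsion diluted to the predetermined herbicide amount. Greenhouse 25–30° C; readout at week three on previously defined criteria.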

Chinese sprangletop = experiment: Test Example 3: herbicidal effect by foliage application, Wagner pot (Table 18, symbol D); assay type: in vivo, chinese sprangletop (Leptochloa chinensis)
How it was run: (§2)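 Plants were sown in alluvial soil held under 0.1–0.5 cm standing water and grown 14 days in a greenhouse at 25–30 °C. An emulsifiable formulation, water-diluted to the set dose, was then sprayed onto the foliage, and effects were scored three weeks later using previously defined criteria.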

blackgrass [2] = experiment: Test Example 4: herbicidal effect by soil treatment (Table 19, symbol J); assay type: in vivo, blackgrass (Alopecurus myosuroides)
How it was run: as §1

lambsquarters [3] = experiment: Test Example 4: herbicidal effect by soil treatment (Table 19, symbol O); assay type: in vivo, lambsquarters (Chenopodium album)
How it was run: as §1

wild oat [4] = experiment: Test Example 5: herbicidal effect by foliage application, plastic box (Table 20, symbol I); assay type: in vivo, wild oat (Avena fatua); details: foliage application, 320 g/ha
How it was run: (§3)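 Plants were sown into sterilized diluvial soil under about 1.5 cm cover and kept in a greenhouse at 25° C. to 30° C. Fourteen days on, foliage received an even spray of the diluted emulsion. Herbicidal or crop effect was judged three weeks afterwards.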

southern crabgrass [5] = experiment: Test Example 4: herbicidal effect by soil treatment (Table 19, symbol F); assay type: in vivo, southern crabgrass (Digitaria ciliaris)
How it was run: as §1

lambsquarters [6] = experiment: Test Example 5: herbicidal effect by foliage application, plastic box (Table 20, symbol O); assay type: in vivo, lambsquarters (Chenopodium album); details: foliage application, 320 g/ha
How it was run: as §3

chickweed [7] = experiment: Test Example 4: herbicidal effect by soil treatment (Table 19, symbol P); assay type: in vivo, common chickweed (Stellaria media)
How it was run: as §1

rice flat sedge = experiment: Test Example 3: herbicidal effect by foliage application, Wagner pot (Table 18, symbol E); assay type: in vivo, rice flat sedge (Cyperus iria)
How it was run: as §2

windgrass = experiment: Test Example 5: herbicidal effect by foliage application, plastic box (Table 20, symbol L); assay type: in vivo, windgrass (Apera spica-venti); details: foliage application, 320 g/ha
How it was run: as §3

barnyard grass [8] = experiment: Test Example 5: herbicidal effect by foliage application, plastic box (Table 20, symbol H); assay type: in vivo, barnyard grass (Echinochloa crus-galli); details: foliage application, 320 g/ha
How it was run: as §3

velvetleaf [9] = experiment: Test Example 4: herbicidal effect by soil treatment (Table 19, symbol M); assay type: in vivo, velvetleaf (Abutilon theophrasti)
How it was run: as §1

green foxtail [10] = experiment: Test Example 4: herbicidal effect by soil treatment (Table 19, symbol G); assay type: in vivo, green foxtail (Setaria viridis)
How it was run: as §1

persian speedwell [11] = experiment: Test Example 5: herbicidal effect by foliage application, plastic box (Table 20, symbol R); assay type: in vivo, Persian speedwell (Veronica persica); details: foliage application, 320 g/ha
How it was run: as §3

Italian ryegrass [12] = experiment: Test Example 5: herbicidal effect by foliage application, plastic box (Table 20, symbol K); assay type: in vivo, Italian ryegrass (Lolium multiflorum); details: foliage application, 320 g/ha
How it was run: as §3

Italian ryegrass [13] = experiment: Test Example 4: herbicidal effect by soil treatment (Table 19, symbol K); assay type: in vivo, Italian ryegrass (Lolium multiflorum)
How it was run: as §1

blackgrass [14] = experiment: Test Example 5: herbicidal effect by foliage application, plastic box (Table 20, symbol J); assay type: in vivo, blackgrass (Alopecurus myosuroides); details: foliage application, 320 g/ha
How it was run: as §3

persian speedwell [15] = experiment: Test Example 4: herbicidal effect by soil treatment (Table 19, symbol R); assay type: in vivo, Persian speedwell (Veronica persica)
Text: [Test Example 4] Herbicidal Effect Test by Soil Treatment
Sterilized diluvial soil was placed in a plastic box having a length of 21 cm, a width of 13 cm, and a depth of 7 cm. The seeds of each of southern crabgrass, green foxtail, barnyard grass, wild oat, blackgrass, Italian ryegrass, windgrass, velvetleaf, redroot pigweed, lambsquarters, chickweed, false cleavers, persian speedwell, corn, soybean, rice, wheat, beet, and rapeseed were sowed in a spot-like manner and covered with the soil having a thickness of about 1.5 cm. Subsequently, the emulsion agent of the compound of the present invention prepared according to Formulation Example 2 was diluted with water so as to achieve a predetermined herbicide amount, and the diluted emulsion agent was uniformly applied to the surface of the soil with a small-sized spray. The plastic box was placed in a greenhouse at 25° C. to 30° C. for growth of the plants. Three weeks after the herbicide application, the effect of the herbicide on each plant was evaluated according to the criteria of Test Example 1.

barnyard grass [16] = experiment: Test Example 4: herbicidal effect by soil treatment (Table 19, symbol H); assay type: in vivo, barnyard grass (Echinochloa crus-galli)
How it was run: as §1

velvetleaf [17] = experiment: Test Example 5: herbicidal effect by foliage application, plastic box (Table 20, symbol M); assay type: in vivo, velvetleaf (Abutilon theophrasti); details: foliage application, 320 g/ha
How it was run: as §3

green foxtail [18] = experiment: Test Example 5: herbicidal effect by foliage application, plastic box (Table 20, symbol G); assay type: in vivo, green foxtail (Setaria viridis); details: foliage application, 320 g/ha
How it was run: as §3

redroot pigweed [19] = experiment: Test Example 4: herbicidal effect by soil treatment (Table 19, symbol N); assay type: in vivo, redroot pigweed (Amaranthus retroflexus); details: 320 g/ha
How it was run: as §1

barnyard grass [20] = experiment: Test Example 3: herbicidal effect by foliage application, Wagner pot (Table 18, symbol H); assay type: in vivo, barnyard grass (Echinochloa crus-galli)
How it was run: as §2

southern crabgrass [21] = experiment: Test Example 5: herbicidal effect by foliage application, plastic box (Table 20, symbol F); assay type: in vivo, southern crabgrass (Digitaria ciliaris); details: foliage application, 320 g/ha
How it was run: as §3

redroot pigweed [22] = experiment: Test Example 5: herbicidal effect by foliage application, plastic box (Table 20, symbol N); assay type: in vivo, redroot pigweed (Amaranthus retroflexus); details: foliage application, 320 g/ha, evaluated three weeks after application
How it was run: as §3

chickweed [23] = experiment: Test Example 5: herbicidal effect by foliage application, plastic box (Table 20, symbol P); assay type: in vivo, common chickweed (Stellaria media); details: foliage application, 320 g/ha, evaluated three weeks after application
How it was run: as §3

[24] = amount of applied herbicide 320 g/ha
[25] = evaluated three weeks after application

## COCCC(=O)Oc1c(C)nn(C)c(=O)c1-c1c(-c2ccc(F)cc2)sc2ccc(F)cc12 [2-003]
Wild oat [1]; 320 g/ha
  herbicidal effect rating, I: wild oat: 0 (Herbicidal rate of 5% or less (almost no effect))
Chinese sprangletop; 320 g/ha
  herbicidal effect on D (Chinese sprangletop), rating 0-5: 3 (Herbicidal rate of 40% or more and less than 70%)
Blackgrass [2]; 320 g/ha
  herbicidal effect rating, J: blackgrass: 3 (Herbicidal rate of 40% or more and less than 70%)
Lambsquarters [3]; 320 g/ha
  herbicidal effect rating, O: lambsquarters: 5 (Herbicidal rate of 90% or more (almost completely withered))
Wild oat [4]; 3 weeks after application
  effect on wild oat (I): 2 (Herbicidal rate of 20% or more and less than 40%)
Southern crabgrass [5]; 320 g/ha
  herbicidal effect rating, F: southern crabgrass: 5 (Herbicidal rate of 90% or more (almost completely withered))
Lambsquarters [6]; 3 weeks after application
  effect on lambsquarters (O): 5 (Herbicidal rate of 90% or more (almost completely withered))
Chickweed [7]; 320 g/ha
  herbicidal effect rating, P: chickweed: 3 (Herbicidal rate of 40% or more and less than 70%)
Rice flat sedge; 320 g/ha
  herbicidal effect on E (rice flat sedge), rating 0-5: 5 (Herbicidal rate of 90% or more (almost completely withered))
windgrass; 3 weeks after application
  effect on windgrass (L): 4 (Herbicidal rate of 70% or more and less than 90%)
Barnyard grass [8]; 3 weeks after application
  effect on barnyard grass (H): 5 (Herbicidal rate of 90% or more (almost completely withered))
Velvetleaf [9]; 320 g/ha
  herbicidal effect rating, M: velvetleaf: 5 (Herbicidal rate of 90% or more (almost completely withered))
Green foxtail [10]; 320 g/ha
  herbicidal effect rating, G: green foxtail: 5 (Herbicidal rate of 90% or more (almost completely withered))
Persian speedwell [11]; 3 weeks after application
  effect on persian speedwell (R): 5 (Herbicidal rate of 90% or more (almost completely withered))
Italian ryegrass [12]; 3 weeks after application
  effect on Italian ryegrass (K): 4 (Herbicidal rate of 70% or more and less than 90%)
Italian ryegrass [13]; 320 g/ha
  herbicidal effect rating, K: Italian ryegrass: 5 (Herbicidal rate of 90% or more (almost completely withered))
Blackgrass [14]; 3 weeks after application
  effect on blackgrass (J): 4 (Herbicidal rate of 70% or more and less than 90%)
Persian speedwell [15]; 320 g/ha
  herbicidal effect rating, R: persian speedwell: 4 (Herbicidal rate of 70% or more and less than 90%)
Barnyard grass [16]; 320 g/ha
  herbicidal effect rating, H: barnyard grass: 5 (Herbicidal rate of 90% or more (almost completely withered))
Velvetleaf [17]; 3 weeks after application
  effect on velvetleaf (M): 5 (Herbicidal rate of 90% or more (almost completely withered))
Green foxtail [18]; 3 weeks after application
  effect on green foxtail (G): 5 (Herbicidal rate of 90% or more (almost completely withered))
Redroot pigweed [19]
  herbicidal effect rating, N: redroot pigweed: 5 (Herbicidal rate of 90% or more (almost completely withered))
Barnyard grass [20]; 320 g/ha
  herbicidal effect on H (barnyard grass), rating 0-5: 5 (Herbicidal rate of 90% or more (almost completely withered))
Southern crabgrass [21]; 3 weeks after application
  effect on southern crabgrass (F): 5 (Herbicidal rate of 90% or more (almost completely withered))

## CCCC(=O)Oc1c(C)nn(C)c(=O)c1-c1c(-c2ccccc2)sc2ccc(C)cc12 [2-133]
Wild oat [1]; [24]
  I: wild oat, herbicidal effect rating: 0 (Herbicidal rate of 5% or less (almost no effect))
Redroot pigweed [22]
  herbicidal effect on N: redroot pigweed: 5 (Herbicidal rate of 90% or more (almost completely withered))
Chinese sprangletop; [24]
  herbicidal effect on D: Chinese sprangletop: 0 (Herbicidal rate of 5% or less (almost no effect))
Blackgrass [2]; [24]
  J: blackgrass, herbicidal effect rating: 0 (Herbicidal rate of 5% or less (almost no effect))
Lambsquarters [3]; [24]
  O: lambsquarters, herbicidal effect rating: 5 (Herbicidal rate of 90% or more (almost completely withered))
Wild oat [4]; [25]
  herbicidal effect on I: wild oat: 0 (Herbicidal rate of 5% or less (almost no effect))
Southern crabgrass [5]; [24]
  F: southern crabgrass, herbicidal effect rating: 0 (Herbicidal rate of 5% or less (almost no effect))
Lambsquarters [6]; [25]
  herbicidal effect on O: lambsquarters: 4 (Herbicidal rate of 70% or more and less than 90%)
Chickweed [7]; [24]
  P: chickweed, herbicidal effect rating: 5 (Herbicidal rate of 90% or more (almost completely withered))
Rice flat sedge; [24]
  herbicidal effect on E: rice flat sedge: 5 (Herbicidal rate of 90% or more (almost completely withered))
Chickweed [23]
  herbicidal effect on P: chickweed: 5 (Herbicidal rate of 90% or more (almost completely withered))
windgrass; [25]
  herbicidal effect on L: windgrass: 0 (Herbicidal rate of 5% or less (almost no effect))
Barnyard grass [8]; [25]
  herbicidal effect on H: barnyard grass: 0 (Herbicidal rate of 5% or less (almost no effect))
Velvetleaf [9]; [24]
  M: velvetleaf, herbicidal effect rating: 0 (Herbicidal rate of 5% or less (almost no effect))
Green foxtail [10]; [24]
  G: green foxtail, herbicidal effect rating: 0 (Herbicidal rate of 5% or less (almost no effect))
Persian speedwell [11]; [25]
  herbicidal effect on R: persian speedwell: 2 (Herbicidal rate of 20% or more and less than 40%)
Italian ryegrass [12]; [25]
  herbicidal effect on K: Italian ryegrass: 3 (Herbicidal rate of 40% or more and less than 70%)
Italian ryegrass [13]; [24]
  K: Italian ryegrass, herbicidal effect rating: 0 (Herbicidal rate of 5% or less (almost no effect))
Blackgrass [14]; [25]
  herbicidal effect on J: blackgrass: 0 (Herbicidal rate of 5% or less (almost no effect))
Persian speedwell [15]; [24]
  R: persian speedwell, herbicidal effect rating: 0 (Herbicidal rate of 5% or less (almost no effect))
Barnyard grass [16]; [24]
  H: barnyard grass, herbicidal effect rating: 0 (Herbicidal rate of 5% or less (almost no effect))
Velvetleaf [17]; [25]
  herbicidal effect on M: velvetleaf: 5 (Herbicidal rate of 90% or more (almost completely withered))
Green foxtail [18]; [25]
  herbicidal effect on G: green foxtail: 2 (Herbicidal rate of 20% or more and less than 40%)
Barnyard grass [20]; [24]
  herbicidal effect on H: barnyard grass: 0 (Herbicidal rate of 5% or less (almost no effect))
Southern crabgrass [21]; [25]
  herbicidal effect on F: southern crabgrass: 0 (Herbicidal rate of 5% or less (almost no effect))
